Measured values reported in patent US8039639B2, “Kinase inhibitors and methods of use thereof” (Array BioPharma Inc., priority 2006, dated 2011).
pIC50: −log10 of the molar value. Residues, ends and D or L forms follow the SMILES beside them. *: point of attachment. Cbz = O=C(OCc1ccccc1)*

Experiments:
[1] = target: Tie2 (Homo sapiens, UniProt Q02763); assay: protein kinase IC50 determination (ATP at Km); type: biochemical; conditions: ATP concentration at Km
[2] = target: Abl (Homo sapiens, UniProt P00519); assay: protein kinase IC50 determination (ATP at Km); type: biochemical; conditions: ATP concentration at Km
[3] = target: p38α (Homo sapiens, UniProt Q16539); assay: in-house p38α radioactive kinase assay using ATF-2 as a substrate; type: biochemical; conditions: ATF-2 substrate
Procedure: p38 activity was assayed at room temperature in a 100 μL reaction containing 5 nM activated p38α enzyme and 1 μM ATF-2 (Activating Transcription Factor 2 fusion protein) as the substrate in 25 mM HEPES (pH 7.4), 100 μM Vanadate, 1 mM DTT, 10 mM MgCl2 and 10 μM [γ-^33P]-ATP (˜0.1 μCi P^33/reaction). The reaction was terminated after 30-40 minutes by adding 25% TCA, allowed to stand for 5 minutes, and then transferred directly to a GF-B membrane filter plate. The filter was washed twice for 30 seconds with 0.5% phosphoric acid using a Tomtec Mach III Automated Harvestor. After washing, the vacuum was continued for 30 seconds to dry the filter. Approximately 30 μL of scintillant was added per well to the filter plate and then read in a Liquid Scintillation Counter (Packard TopCount HTS).

[4] = Solubility determination; type: physicochemical
[5] = test system: RPMI 8226; assay: RPMI 8226 cell viability (CellTiter Blue); type: cell-based; conditions: Homo sapiens; RPMI 8226, 72 hours; read-out: Proliferation IC50
Procedure: Cell viability was then measured using CellTiter Blue (Promega) to determine IC50 values for each compound (Table 8). […] MG-132 produced an IC50 that was within historical ranges of in-house testing (Table 8).

[6] = test system: K562 cells; assay: K562 subcutaneous tumor model (BCR-Abl-driven tumors); type: in vivo, Female Scid-beige mice; conditions: K562 tumors, PO ×7, dosed as Compound 74
Procedure: Test compounds were administered by oral gavage at the indicated doses and schedules when tumors reached 200±50 mm^3 in size. […] Tumor size and body weight were monitored throughout the study.

Chain of p38α (Q16539 whole entry, the tested form may be a part): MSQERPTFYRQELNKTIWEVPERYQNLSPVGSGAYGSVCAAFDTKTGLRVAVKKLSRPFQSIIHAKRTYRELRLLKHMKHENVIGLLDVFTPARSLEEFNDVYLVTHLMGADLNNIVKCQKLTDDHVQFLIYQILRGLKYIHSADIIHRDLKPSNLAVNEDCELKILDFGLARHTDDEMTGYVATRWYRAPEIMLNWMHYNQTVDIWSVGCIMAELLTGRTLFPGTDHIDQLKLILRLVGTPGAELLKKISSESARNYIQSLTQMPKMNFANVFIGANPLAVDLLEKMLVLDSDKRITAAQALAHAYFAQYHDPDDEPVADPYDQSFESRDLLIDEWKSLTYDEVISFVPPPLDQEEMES
Chain of Abl (P00519 whole entry, species assumed): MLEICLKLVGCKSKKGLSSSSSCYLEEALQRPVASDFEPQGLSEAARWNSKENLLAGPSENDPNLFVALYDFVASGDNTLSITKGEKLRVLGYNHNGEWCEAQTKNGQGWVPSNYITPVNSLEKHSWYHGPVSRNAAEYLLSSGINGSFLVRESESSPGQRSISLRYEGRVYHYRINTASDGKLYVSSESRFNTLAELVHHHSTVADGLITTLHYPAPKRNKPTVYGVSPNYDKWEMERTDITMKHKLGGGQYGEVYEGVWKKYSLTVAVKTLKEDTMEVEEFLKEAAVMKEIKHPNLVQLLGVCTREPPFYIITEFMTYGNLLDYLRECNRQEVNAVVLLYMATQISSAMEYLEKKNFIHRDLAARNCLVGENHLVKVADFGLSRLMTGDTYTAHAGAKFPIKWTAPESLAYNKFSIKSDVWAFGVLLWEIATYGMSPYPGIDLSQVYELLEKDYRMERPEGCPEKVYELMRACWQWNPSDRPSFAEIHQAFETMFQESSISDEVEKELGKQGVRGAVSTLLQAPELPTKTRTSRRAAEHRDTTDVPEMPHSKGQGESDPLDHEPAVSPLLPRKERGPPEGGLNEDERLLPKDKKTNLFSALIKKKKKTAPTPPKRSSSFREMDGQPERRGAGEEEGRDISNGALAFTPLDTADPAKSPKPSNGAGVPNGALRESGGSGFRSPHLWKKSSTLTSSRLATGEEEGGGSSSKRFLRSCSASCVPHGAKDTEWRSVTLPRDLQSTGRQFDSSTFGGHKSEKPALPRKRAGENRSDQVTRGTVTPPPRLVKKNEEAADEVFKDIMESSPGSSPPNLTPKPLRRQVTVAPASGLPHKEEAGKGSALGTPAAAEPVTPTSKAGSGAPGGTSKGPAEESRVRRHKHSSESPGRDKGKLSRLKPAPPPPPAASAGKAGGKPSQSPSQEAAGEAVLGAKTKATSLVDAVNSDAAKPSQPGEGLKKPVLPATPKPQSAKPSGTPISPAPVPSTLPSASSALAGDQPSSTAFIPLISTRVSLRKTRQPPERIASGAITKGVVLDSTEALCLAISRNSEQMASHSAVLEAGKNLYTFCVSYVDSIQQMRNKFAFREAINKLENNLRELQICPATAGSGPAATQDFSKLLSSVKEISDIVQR
Chain of Tie2 (Q02763 23-1124, species assumed): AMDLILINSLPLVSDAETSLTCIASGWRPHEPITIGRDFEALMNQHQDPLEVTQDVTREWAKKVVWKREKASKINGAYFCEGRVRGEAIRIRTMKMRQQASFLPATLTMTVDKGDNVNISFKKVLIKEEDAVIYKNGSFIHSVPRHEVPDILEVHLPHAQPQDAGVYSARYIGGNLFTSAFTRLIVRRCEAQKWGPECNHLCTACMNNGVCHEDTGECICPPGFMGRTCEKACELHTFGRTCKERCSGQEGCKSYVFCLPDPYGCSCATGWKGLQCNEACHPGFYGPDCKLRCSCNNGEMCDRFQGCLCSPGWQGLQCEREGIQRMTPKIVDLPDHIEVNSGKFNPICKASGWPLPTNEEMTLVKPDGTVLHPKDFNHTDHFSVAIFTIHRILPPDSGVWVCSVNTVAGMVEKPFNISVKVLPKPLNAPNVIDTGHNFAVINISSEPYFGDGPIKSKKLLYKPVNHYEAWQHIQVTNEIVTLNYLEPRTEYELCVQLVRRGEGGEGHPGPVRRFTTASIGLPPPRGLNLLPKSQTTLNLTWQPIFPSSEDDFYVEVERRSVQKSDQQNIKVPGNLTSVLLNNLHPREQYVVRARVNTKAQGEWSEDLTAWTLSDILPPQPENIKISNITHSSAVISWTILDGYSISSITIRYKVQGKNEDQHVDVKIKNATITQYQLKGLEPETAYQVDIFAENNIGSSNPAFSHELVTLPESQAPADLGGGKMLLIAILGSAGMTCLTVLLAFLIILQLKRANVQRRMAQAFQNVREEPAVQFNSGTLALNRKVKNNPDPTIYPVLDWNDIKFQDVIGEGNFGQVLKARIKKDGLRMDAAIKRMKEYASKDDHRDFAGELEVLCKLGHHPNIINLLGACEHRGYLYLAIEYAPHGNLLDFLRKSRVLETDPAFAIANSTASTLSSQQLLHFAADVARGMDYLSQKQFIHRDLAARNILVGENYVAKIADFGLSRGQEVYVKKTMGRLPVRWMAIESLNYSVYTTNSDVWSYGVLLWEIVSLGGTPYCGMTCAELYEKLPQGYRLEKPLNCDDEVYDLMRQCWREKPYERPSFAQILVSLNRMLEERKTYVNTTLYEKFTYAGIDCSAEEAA

SMILES	pIC50 [1]	pIC50 [2]	pIC50 [3]	solubility ([4]; pH 6.5, aqueous buffer)	solubility ([4]; pH 7.4, aqueous buffer)	pIC50 [5]	% Regression ([6]; 30 mg/kg BID)	% Regression ([6]; 100 mg/kg BID)	% Regression ([6]; 100 mg/kg QD)	solubility ([4]; pH 1.2, simulated gastric fluid)
Cn1nc(C(C)(C)C)cc1NC(=O)NCc1cc(F)ccc1Oc1ccc2c(cnn2CC(C)(C)O)c1 [Example 138]	< 6.30	< 6.30	> 8.70	< 1 µg/mL	< 1 µg/mL	–	–	–	–	–
CC(C)C[C@@H](C=O)NC(=O)[C@H](CC(C)C)NC(=O)[C@H](CC(C)C)NC(=O)OCc1ccccc1 [MG-132, reference compound] (Cbz-Leu-Leu-Leu-aldehyde)	–	–	–	–	–	6.94	–	–	–	–
Cc1ccc(-n2nc(C(C)(C)C)cc2NC(=O)NCc2cc(F)ccc2Oc2ccc3c(cnn3CCOP(=O)(O)O)c2)cc1 [Compound 74, 2-(5-(2-(3-(3-tert-butyl-1-p-tolyl-1H-pyrazol-5-yl)ureido)methyl)-4-fluorophenoxy)-1H-indazol-1-yl)ethyl dihydrogenphosphate]	–	–	–	–	–	–	tumor stasis	94%	tumor stasis	< 1000 µg/mL
Cc1ccc(-n2nc(C(C)(C)C)cc2NC(=O)NCc2cc(F)ccc2Oc2ccc3c(cnn3C)c2)cc1 [Example 94]	8.40	8.00	> 8.70	< 1 µg/mL	< 1 µg/mL	–	–	–	–	–
